Reference: patent US20230150951A1, “2,5- OR 2,6-DISUBSTITUTED HYDROQUINONE DERIVATIVES WITH AT LEAST ONE CARBOXY, SULFO OR AMIDO GROUP USEFUL AS MEDICAMENTS” (OM PHARMA SA, priority 2020, published 2023)
“Also recorded” adds a separate entry of the source.

Columns and labels:
[1] = tested on: acute pancreatitis murine model; experiment: Caerulein-induced acute pancreatitis murine model; type: in vivo, Balb/c mice; design: Serum IL33 level / Serum TGF-B level: unit not given here; details: for Acinar cell necrosis (group mean score) / Haemorrhage (group mean score) / Interstitial oedema (group mean score) / Leukocyte infiltration (group mean score) / Mean terminal BW (% of initial) / Mean terminal pancreas weight / Pancreas histopathology observations (H&E) / Schmidt Score (H&E) / Pancreas IL33 level / Pancreas MPO activity / Pancreas TGF-B level / Serum IL33 level / Serum TGF-B level / Serum amylase level / Serum lipase level: 1st experiment, 15 mg/kg IV, Ib-010a and IVc-059a 150 mg/kg PO, Pirfenidone 40 mg/kg IV; for Acinar cell necrosis (group mean score) / Haemorrhage (group mean score) / Interstitial oedema (group mean score) / Leukocyte infiltration (group mean score) / Mean terminal BW (% of initial) / Mean terminal pancreas weight / Pancreas histopathology observations (H&E) / Schmidt Score (H&E): caerulein induced; for Schmidt Score (H&E): induced + vehicle = 10, non-induced = 0; for Pancreas IL33 level / Pancreas MPO activity / Pancreas TGF-B level: terminal pancreatic tissue; for Serum IL33 level / Serum TGF-B level / Serum amylase level / Serum lipase level: terminal serum; for pancreatic tissue levels of IL33 / TGF-B levels in pancreas / Global Schmidt score: first experiment; for pancreatic tissue levels of IL33: compared to the induced group; for Global Schmidt score: vs caerulein control animals; for Lipase activity in serum: pirfenidone 100 mg/kg, compounds 15 mg/k, vs vehicle treated animals; for MPO activity in pancreatic tissue: vs induced vehicle treated controls
Description: Therapeutic efficacy of the compounds according to the present invention was assessed on an acute pancreatitis murine model. Tissue samples were obtained to allow post in-life analysis of pancreatitis parameters. Plasma samples were also obtained to assess animal exposure levels after administration of the compounds.
Animals: A total of 70 female Balb/c mice aged 8-10 weeks weighing approximately 20-25 g were used for the study (Charles River). After 7 days acclimatization, they were allocated into the different groups. […] Cages, bedding, and water were sanitized before use. Animals were provided with Corn-o-cobs enrichment bedding to provide environment enrichment and nesting material. […] The animal holding room were maintained as follows—room temperature at 20-24° C., humidity at 30-70% and a 12 h light/dark cycle used. Although animals used in this study were immuno-competent, preparation of dosing solutions and dosing/weighing of animals were carried out in a sterile biosafety cabinet.
Final formulation was in 5% DMSO, 10% Solutol, 10% PEG400, 75% 0.9% Saline and pH adjusted to 7 with 0.5M NaOH solution.
Final formulation is in 5% DMSO, 10% Solutol, 10% PEG400, 75% 0.9% Saline and pH adjusted to 7 with 0.5M NaOH solution. For per os (PO) dosing IVc-059a is formulated in water. Drug solutions were formulated on the day of dosing.
The purposes of this study were to assess efficacy compounds in an acute pancreatitis model (14 days), generate tissue samples to allow post in-life analysis of pancreatitis parameters and generate four plasma samples to assess animal exposure levels after first and last injection obtained from blood samples taken 1 h and 24 h after first and last injection.
Study Design: On the first study day animals were randomly be assigned to treatment groups, ensuring an equal spread of bodyweight. Mice (except negative control group) were treated with test compounds were given 5 minutes prior to caerulein dosing, followed by injection with caerulein at […] via intraperitoneal route (IP) daily during the study.
Treatment of test compounds were given 5 minutes prior to caerulein dosing.
Sampling and post in-life analyses: at times indicated above a whole blood sample (60 μl) were taken from the lateral tail vein into tubes coated with K2-EDTA. Plasma samples were prepared and stored frozen at −20° C. Plasma samples were sent to client bioanalysis provider Eurofins (FR) for quantification of compound.
Terminal Sampling: Prior to termination animals were weighed. Terminal study animals were culled via CO2 inhalation. A terminal blood sample was taken via cardiac puncture and plasma prepared. Lipase and Amylase activities were measured via ELISA using commercially available ELISA kits. Remaining plasma was stored for future cytokine analyses. Pancreas tissue was resected and weighed, and a section ([…]) snap frozen and analysed for quantification of compound in pancreas sample. A section ([…]) was processed for measurement of MPO activity, IL-33 and TGF-B levels via ELISA. The remainder was fixed in formalin and embedded in paraffin wax. H&E staining was carried out and section assessed using Schmidts standard scoring system, examining: edema, inflammatory infiltration, parenchymal necrosis, haemorrhage. Massons' Trichrome staining was carried out and area covered by fibrotic tissue quantified digitally using QuPath software. Terminal serum samples was used to assess blood chemistry using an IdeXX CHEM15 and LYTE4 clip (4 animals per treatment group).
Histopathology assessment of pancreatic injury based on 4 criteria: Oedema, Inflammatory infiltration, Parenchymal necrosis, Haemorrhage and scored as described below.
Schmidt score is the evaluation of the efficacy of the compounds based on the four histopathology criteria as described in the table below.

[2] = tested on: STZ-induced diabetes model; experiment: STZ-induced diabetic nephropathy, kidney disease and retinopathy model (28 days treatment); details: for Serum TNF-α / Retina vasculature coverage / Kidney collagen levels (Masson's Trichrome): 28 days; for Serum TNF-α: p<0.05; for Mean day 0 blood glucose Concentration (mmol/L) (SD) / Mean day 28 blood glucose Concentration (mmol/L) (SD) / Blood BUN / Disease Score (kidney, H&E) / Eye area (retinal flatmount area covered by vasculature) / Trichrome staining (Kidney fibrosis) / Blood CRP / Blood IL-6 / Blood TGF-beta / Blood TNF-alpha / Urine albumine creatinine ratio (ALB:CRE): 15 mg/kg IV, Captopril 50 mg/kg PO; for Blood BUN / Disease Score (kidney, H&E) / Eye area (retinal flatmount area covered by vasculature) / Trichrome staining (Kidney fibrosis) / Blood CRP / Blood IL-6 / Blood TGF-beta / Blood TNF-alpha / Urine albumine creatinine ratio (ALB:CRE): day 28 of treatment (week 9); for Blood CRP / Blood IL-6 / Blood TGF-beta / Blood TNF-alpha: serum; for Urine albumine creatinine ratio (ALB:CRE): urine pooled per group; for Retina vasculature coverage: retinal flat mounts, FITC-dextran; for Kidney collagen levels (Masson's Trichrome) / Blood glucose levels on day 28 / Blood urea nitrogen levels: vs induced vehicle controls; for Blood glucose levels on day 28: IV; for Mean day 28 blood glucose Concentration (mmol/L) (SD) / Blood urea nitrogen levels: day 28; for Urine ALB:CREA: treatment day 28
[3] = second experiment, H&E sections
[4] = second experiment, IV, 15 mg/kg, Pirfenidone 100 mg/kg

Compound: O=C(O)c1cc(O)c(C(=O)Nc2ccccc2C(=O)O)cc1O [Ia-001a, 4-(2-carboxyphenylaminocarbonyl)-2,5-dihydroxybenzoic acid]
- Acinar cell necrosis (group mean score) [1]: 0.9
- Haemorrhage (group mean score) [1]: 1.1
- Interstitial oedema (group mean score) [1]: 1.3
- Leukocyte infiltration (group mean score) [1]: 3.0
- Mean terminal BW (% of initial) [1]: 90.3 % of initial
- Mean terminal pancreas weight [1]: 0.083 g
- Pancreas histopathology observations (H&E) [1]: Oedema observed throughout pancreas; also recorded: Haemorrhage observed; also recorded: Mild acinar cell less necrosis observed; also recorded: Leukocyte infiltration throughout; also recorded: Abnormal islet morphology observed; also recorded: Disruption to the basophilic region
- Schmidt Score (H&E) [1]: 6.3
- Pancreas IL33 level [1]: 330 ± 162
- Pancreas MPO activity [1]: 3.76
- Pancreas TGF-B level [1]: 592 ± 358
- Serum IL33 level [1]: 39.52
- Serum TGF-B level [1]: 8.69
- Serum amylase level [1]: 34.07
- Serum lipase level [1]: 6.72
- pancreatic tissue levels of IL33 ([1]; IV): significant decrease
- Serum CRP ([2]; 28 days of treatment, vs vehicle induced controls): significantly reduced
- Serum TNF-α [2]: significantly lower than vehicle induced controls
- Mean day 0 blood glucose Concentration (mmol/L) (SD) [2]: 25.7 (6.3) mmol/L
- Mean day 28 blood glucose Concentration (mmol/L) (SD) [2]: 31.6 (3.8) mmol/L
- Blood BUN [2]: 25.1 ± 3.1
- Disease Score (kidney, H&E) [2]: 7 ± 1
- Eye area (retinal flatmount area covered by vasculature) [2]: 9.9 ± 1.9
- Trichrome staining (Kidney fibrosis) [2]: 1.87 ± 0.65
- Blood CRP [2]: 4759 ± 1181
- Blood IL-6 [2]: 114.16 ± 29.96
- Blood TGF-beta [2]: 15.54 ± 2.8
- Blood TNF-alpha [2]: 342.3 ± 15.6
- Urine albumine creatinine ratio (ALB:CRE) [2]: 35.68

Compound: O=C(O)c1cc(O)c(CN(Cc2cc(O)c(C(=O)O)cc2O)Cc2cc(O)c(C(=O)O)cc2O)cc1O [IIIc-061a, Tris(4-carboxy-2,5-dihydroxyphenylmethyl)amine]
- Acinar cell necrosis (group mean score) [1]: 0.5
- Haemorrhage (group mean score) [1]: 1.0
- Interstitial oedema (group mean score) [1]: 1.0
- Mean terminal BW (% of initial) [1]: 91.4 % of initial
- Mean terminal pancreas weight [1]: 0.086 g
- Pancreas histopathology observations (H&E) [1]: Mild oedema observed; also recorded: Mild haemorrhage observed; also recorded: Mild acinar cell necrosis observed; also recorded: Mild leukocyte infiltration observed; also recorded: Normal islet morphology observed
- Schmidt Score (H&E) [1]: 3.5
- Pancreas IL33 level [1]: 177 ± 80
- Pancreas MPO activity [1]: 2.13
- Pancreas TGF-B level [1]: 295 ± 146
- Serum IL33 level [1]: 33.72
- Serum TGF-B level [1]: 4.65
- Serum amylase level [1]: 38.38
- Serum lipase level [1]: 9.79
- TGF-B levels in pancreas ([1]; IV): decreased significantly
- pancreatic tissue levels of IL33 ([1]; IV): significant decrease
- Global Schmidt score [1]: especially improved
- Schmidt Score [1, 3]: lower scores than the positive control pirfenidone
- Lipase activity in serum ([1]; second experiment): significantly lower than that in vehicle treated animals
- MPO activity in pancreatic tissue ([1]; second experiment): significantly lower than induced vehicle treated controls
- Serum TNF-α [2]: significantly lower than vehicle induced controls
- Retina vasculature coverage [2]: significantly decreased
- Kidney collagen levels (Masson's Trichrome) [2]: significantly decreased
- Blood glucose levels on day 28 [2]: reduction in blood glucose levels, however this did not reach statistical significance
- Blood urea nitrogen levels [2]: significantly lower than induced vehicle controls
- Blood BUN [2]: 22.5 ± 4.1
- Disease Score (kidney, H&E) [2]: 8 ± 1
- Eye area (retinal flatmount area covered by vasculature) [2]: 9.1 ± 1.1
- Trichrome staining (Kidney fibrosis) [2]: 1.54 ± 0.55
- Blood CRP [2]: 5963 ± 849
- Blood IL-6 [2]: 117.59 ± 29.21
- Blood TGF-beta [2]: 17.35 ± 2.09
- Blood TNF-alpha [2]: 324.6 ± 43.6
- Urine ALB:CREA [2]: reduced

Compound: O=C(O)c1cc(O)cc(CS(=O)(=O)Cc2cc(O)cc(C(=O)O)c2O)c1O [IVc-059a, 3-((2,5-Dihydroxy-3-carboxyphenyl)methylsulfonylmethyl)-2,5-dihydroxybenzoic acid]
- Acinar cell necrosis (group mean score) [1]: 1.0
- Haemorrhage (group mean score) [1]: 1.0
- Interstitial oedema (group mean score) [1]: 1.0
- Leukocyte infiltration (group mean score) [1]: 1.0
- Mean terminal BW (% of initial) [1]: 93.3 % of initial
- Mean terminal pancreas weight [1]: 0.09 g
- Pancreas histopathology observations (H&E) [1]: Mild oedema less observed; also recorded: Mild haemorrhage less observed; also recorded: Mild acinar cell necrosis observed; also recorded: Mild leukocyte infiltration observed; also recorded: Some pancreatic islet hyperplasia observed; also recorded: Disruption to the basophilic region
- Schmidt Score (H&E) [1]: 4.0
- Pancreas IL33 level [1]: 86 ± 23
- Pancreas MPO activity [1]: 2.88
- Pancreas TGF-B level [1]: 231 ± 199
- Serum IL33 level [1]: 46.54
- Serum TGF-B level [1]: 5.69
- Serum amylase level [1]: 38.56
- Serum lipase level [1]: 10.21
- TGF-B levels in pancreas ([1]; IV): decreased significantly
- pancreatic tissue levels of IL33 ([1]; IV): significant decrease
- Global Schmidt score [1]: especially improved
- Schmidt Score [1, 3]: lower scores than the positive control pirfenidone
- Amylase [1, 4]: 41.149 mU/mL
- IL-33 [1, 4]: 215 ± 84 ng/mL
- Lipase [1, 4]: 4.324 mU/mL
- MPO [1, 4]: 1.813 ± 0.405 U/mg
- Schmidt Score [1, 4]: 10.63 ± 2.33
- TGF-B [1, 4]: 403 ± 84 ng/mL
- Trichome staining (Fibrosis % area) [1, 4]: 1.048 ± 0.449 % area
- Lipase activity in serum ([1]; second experiment): significantly lower than that in vehicle treated animals
- MPO activity in pancreatic tissue ([1]; second experiment): significantly lower than induced vehicle treated controls
- Retina vasculature coverage [2]: significantly decreased
- Kidney collagen levels (Masson's Trichrome) [2]: significantly decreased
- Blood glucose levels on day 28 [2]: significant reduction
- Mean day 0 blood glucose Concentration (mmol/L) (SD) [2]: 24.3 (6.4) mmol/L
- Mean day 28 blood glucose Concentration (mmol/L) (SD) [2]: 23.7 (6.6) mmol/L
- Blood urea nitrogen levels [2]: significantly lower than induced vehicle controls
- Blood BUN [2]: 22.5 ± 2.8
- Disease Score (kidney, H&E) [2]: 7 ± 1
- Eye area (retinal flatmount area covered by vasculature) [2]: 8.7 ± 1.2
- Trichrome staining (Kidney fibrosis) [2]: 1.48 ± 0.73
- Blood CRP [2]: 5691 ± 1395
- Blood IL-6 [2]: 120.88 ± 23.05
- Blood TGF-beta [2]: 13.47 ± 3.33
- Blood TNF-alpha [2]: 350.2 ± 41.4
- Urine albumine creatinine ratio (ALB:CRE) [2]: 18.85
- Urine ALB:CREA [2]: reduced
